Source: PMC10609854 (Pharmaceuticals, 2023)
Several values for one entry are separate records, joined by “and”; a condition that tells them apart may be missing. Equal entries are not always repeated.

Columns and labels:
human sigma 1 receptor = target: T1, human sigma 1 receptor (Homo sapiens, UniProt Q99720); assay: radioligand binding, human sigma 1 receptor ([3H](+)pentazocine, Jurkat cells)
T1 construct: [^3H](+)pentazocine (agonist) in Jurkat cells; host or cells: Jurkat cells

human sigma 2 receptor = target: T2, human sigma 2 receptor (Homo sapiens, UniProt Q5BJF2); assay: radioligand binding, human sigma 2 receptor ([3H]DTG, Jurkat cells); details: [3H]DTG with unlabeled (+)-pentazocine
T2 construct: host or cells: Jurkat cells
T2 sequence (Q5BJF2 whole entry): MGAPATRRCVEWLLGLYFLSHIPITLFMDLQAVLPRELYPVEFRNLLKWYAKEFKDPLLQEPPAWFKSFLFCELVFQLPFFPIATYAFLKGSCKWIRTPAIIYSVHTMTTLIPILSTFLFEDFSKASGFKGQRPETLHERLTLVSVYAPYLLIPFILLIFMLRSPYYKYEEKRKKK

[1] = tested on: acute thermal pain (hot plate); assay: hot plate test; assay type: in vivo; details: mice, 30 mg/kg i.p., 30 min before test; saline control 17.93 ± 1.04 s
Experimental: The hot plate test was performed according to classical method described in Eddy and Leimbach with modifications. At the beginning, animals were tested for their baseline pain sensitivity threshold. For further studies, only mice that fulfilled the criterium of pain response ≤30 s were used. […] The latency to pain response (licking the hind paw or jumping) was measured. The cut-off time was set to up to 60 s to avoid tissue damage, and mice not responding within 60 s were removed from the apparatus and assigned the score of 60 s.

formalin-induced pain = assay: formalin test; assay type: in vivo, mice
Experimental: The mice received an intraperitoneal (i.p.) injection of either the test compound or a control solution. After 30 min, a 20 μL injection of a 2.5% formalin solution was administered into the right hind paw. Right after the formalin injection, the animals were individually placed into glass containers and observed for the following 30 min. During specific time intervals (0–5 min, referred to as Phase I, and 15–30 min, referred to as Phase II, post-formalin injection), the time spent by the animals licking or biting the injected paw was recorded..

capsaicin-induced pain = assay: capsaicin test; assay type: in vivo; details: mice, all doses (10, 15 and 30 mg/kg i.p.)
Experimental: The mice received an intraperitoneal (i.p.) injection of either the test compound or a control solution. After 30 min, an intraplantar injection of 1.6 µg capsaicin in a 20 μL solution of 0.9% NaCl was administered to the right hind paw. Right after the capsaicin injection, the animals were individually placed into glass containers and observed for the subsequent 5 min. During this observation period, the time that each animal spent licking or biting the injected paw was recorded.

[2] = tested on: carrageenan-induced mechanical hyperalgesia; assay: carrageenan-induced mechanical hyperalgesia (Randall-Selitto); assay type: in vivo; details: rats, 3 h after carrageenan, vehicle 87.8%
Experimental: (§1) The acute, local inflammation and paw edema was induced by subplantar injection of 0.1 mL of 1% carrageenan (made in PBS) into the rat right hind paw. The paw volume was measured using the dislocation of the water column of the plethysmometer (Plethysmometr 7140, Ugo Basile) before and at 1, 2, and 3 h after subplantar injection of carrageenan.
Furthermore, to assess the heightened sensitivity to mechanical stimuli, we employed the pain pressure threshold test. This involved applying increasing pressure to the dorsal surface of the right hind paw using an automated gauge (Analgesy Meter 37215, Ugo Basile, Gemonio, Italy), following the method outlined by Randall and Selitto. The force’s intensity, measured in grams, was recorded when the paw was withdrawn (withdrawal threshold). For each animal, withdrawal thresholds were recorded both prior to the administration of carrageenan and three hours afterward. The results were expressed as a percentage of the initial reaction, with the nociceptive response before carrageenan administration considered as the baseline (100% response).

[3] = tested on: carrageenan-induced thermal hyperalgesia; assay: carrageenan-induced thermal hyperalgesia (plantar test); assay type: in vivo; details: rats
Experimental: as §1
To evaluate the heightened sensitivity to thermal stimuli, we employed a plantar test apparatus (Commat Ltd., Ankara, Turkey). Rats were individually placed in plexiglass chambers and allowed to acclimatize for 20 to 30 min before testing. A radiant heat source was positioned beneath the chamber floor, directly under the hind paw. The time it took for the paw to withdraw in response to the heat was automatically recorded by a photocell and an electronic timer. The intensity of the radiant heat was adjusted to achieve baseline withdrawal times of 10–15 s, and a preset cut-off time of 30 s was established to prevent tissue damage. […] Three successive applications of the heating stimulus were performed, with 1- to 2-minute intervals between them, and the mean of these measurements was calculated. Paw withdrawal latency was recorded for each animal before carrageenan administration and at 1, 2, and 3 h afterward.

[4] = tested on: histamine-induced pruritus; assay: histamine-induced pruritus; assay type: in vivo; details: mice
Experimental: The area (around 2 cm^2) of the nape of mice was shaved at least 2 days prior to experiments. On the day of the experiment, each mouse was individually placed in plastic chambers (15 × 15 × 30 cm). After the 30 min period of habituation, the mice received an intradermal (i.d.) injection of histamine dihydrochloride (10 µmol/site), chloroquine (CQ, 200 µg/site), or SLIGRL-NH2 (40 nmol/site), which were dissolved in physiological saline and administrated at the constant volume of 20 μL. Immediately following the injection, scratching (series of movements considered as a single scratching bout usually consisted of three single scratches) of the injected site by the hind paw was counted for 60 min, 30 min, or 45 min after histamine, CQ, and SLIGRL-NH2 injection, respectively.

[5] = tested on: spontaneous locomotor activity; assay: spontaneous locomotor activity; assay type: in vivo; details: mice
Experimental: The mean number of light-beam crossings in the vehicle-treated animals was 1.51 ± 0.13 x 103, measured during the 30 min-long period of observation. The test compound at a dose of 30 mg/kg […]
effect [F(2,21) = 4.43, p < 0.05] (Figure S1).
Figure S1. […] The test compound or vehicle (1% solution of Tween 80) were administered 30 min intraperitoneally (i.p.) before the beginning of the test. The results are presented as bar plots showing the mean ± SEM. Statistical analysis: one-way ANOVA followed by Dunnett’s post hoc test, * p < 0.05, n = 8 mice per group.
time spent on the rotarod apparatus was 60 seconds for each control mouse. The same effect was observed in the E153- treated mice. […]
impaired the motor coordination of mice at any tested speed [F(2,15) = 0.41, p=0.67] (Figure S2). We

[6] = target: human histamine H3 receptor; design: method as in PMID 28797771; details: [3H]Nα-methylhistamine in HEK293 cells; cited from earlier work
eqBuChE = tested on: eqBuChE; design: method as in PMID 34208297; details: cited from earlier work
[7] = target: human histamine H4 receptor; details: read-out: Ki, human histamine H4 receptor; cited from earlier work

T1 sequence (Q99720 whole entry): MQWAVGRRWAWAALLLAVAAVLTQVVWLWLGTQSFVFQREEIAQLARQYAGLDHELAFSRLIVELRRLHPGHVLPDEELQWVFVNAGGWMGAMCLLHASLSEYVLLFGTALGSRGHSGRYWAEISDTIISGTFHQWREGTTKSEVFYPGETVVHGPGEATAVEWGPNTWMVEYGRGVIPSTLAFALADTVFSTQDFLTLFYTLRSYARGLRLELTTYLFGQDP

SMILES: O=C(O)C(=O)O.c1ccc(-c2ccc(OCCCCCN3CCCCCC3)cc2)cc1 [Compound E153, 1-(5-(4-Phenylphenoxy)pentyl)azepane hydrogen oxalate]
- IC50 (human sigma 1 receptor): 2.4 nM
- Ki (human sigma 1 receptor): 1.2 nM
- inhibition at 1 µM (human sigma 1 receptor; at 1 μM): 95%
- inhibition at 1 µM (human sigma 2 receptor): 102%
- latency time of the pain reaction, hot plate test [1]: 37.60 ± 6.13 s
- duration of the nociceptive response, acute phase of the formalin test (formalin-induced pain; mice, 10, 15 and 30 mg/kg i.p., 0–5 min after formalin): did not significantly affect
- paw licking or biting behavior, late phase of the formalin test (formalin-induced pain; mice, all doses tested (10, 15 and 30 mg/kg i.p.), 15–30 min after formalin): significantly attenuated
- paw licking or biting behavior, capsaicin test (capsaicin-induced pain): significantly decreased
- mechanical pain threshold, % of baseline ([2]; 15 mg/kg): 112.5%
- mechanical pain threshold, % of baseline ([2]; 30 mg/kg): 111.8%
- paw withdrawal latency (thermal), % of baseline ([3]; 15 mg/kg, 1 h after carrageenan): 100.8%
- paw withdrawal latency (thermal), % of baseline ([3]; 15 mg/kg, 2 h after carrageenan): 122.6%
- paw withdrawal latency (thermal), % of baseline ([3]; 15 mg/kg, 3 h after carrageenan): 122.6%
- paw withdrawal latency (thermal), % of baseline ([3]; 30 mg/kg, 1 h after carrageenan): 130.3%
- paw withdrawal latency (thermal), % of baseline ([3]; 30 mg/kg, 2 h after carrageenan): 114.8%
- paw withdrawal latency (thermal), % of baseline ([3]; 30 mg/kg, 3 h after carrageenan): 126.6%
- activity in histamine-induced pruritus ([4]; 5 mg/kg i.p.): active
- scratching behavior, histamine-induced pruritus ([4]; i.p. 30 min before i.d. histamine): significantly reduced scratching behavior
- spontaneous locomotor activity (light-beam crossings, 30 min) ([5]; 15 mg/kg i.p.): no effect
- spontaneous locomotor activity (light-beam crossings, 30 min) ([5]; 30 mg/kg i.p.): significantly altered
- Ki [6]: 34 nM and 33.9 nM
- IC50 (eqBuChE): 590 nM
- Ki [7]: 22000 nM
